# Assay results: BindingDB's records for doi:10.7270/Q2N301S8 (D3R/Abbott, 2020)
# Molecular target: Beta-secretase 1 (Homo sapiens, UniProt P56817)
# Experiment: D3R2027
# From the text: D3R2027
# Sequence of Beta-secretase 1 (P56817 whole entry): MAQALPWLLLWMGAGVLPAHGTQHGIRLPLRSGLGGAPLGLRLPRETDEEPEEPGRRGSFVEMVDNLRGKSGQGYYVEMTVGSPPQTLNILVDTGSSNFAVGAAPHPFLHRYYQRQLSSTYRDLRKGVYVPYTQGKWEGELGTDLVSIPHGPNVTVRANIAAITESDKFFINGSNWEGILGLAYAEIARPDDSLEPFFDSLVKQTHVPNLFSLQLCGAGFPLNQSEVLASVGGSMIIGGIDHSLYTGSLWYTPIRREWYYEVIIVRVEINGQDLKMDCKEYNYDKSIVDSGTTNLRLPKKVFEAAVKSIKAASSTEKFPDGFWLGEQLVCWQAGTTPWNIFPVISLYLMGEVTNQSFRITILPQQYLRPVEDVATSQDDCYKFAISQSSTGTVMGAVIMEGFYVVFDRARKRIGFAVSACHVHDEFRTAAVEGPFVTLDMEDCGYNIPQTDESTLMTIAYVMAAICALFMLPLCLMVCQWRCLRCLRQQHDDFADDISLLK
row,IC50 [nM],SMILES
1,68,CC(C)c1cccc(CNC[C@@H](O)[C@@H]2C[C@H](C)CCCCCCCOc3cc(cc(-c4ncco4)c3)C(=O)N2)c1 [BACE_80]
2,21,CCN1CCCCC[C@@H](C)C[C@@H]([C@H](O)CNCc2cccc(C(C)C)c2)NC(=O)c2cccc(c2)C1=O [BACE_6]
3,260,CCCCNC(=O)[C@H](C)C[C@H](O)[C@@H]1C[C@H](C)CCc2cccc(c2)CS(=O)(=O)C[C@@H](C)C(=O)N1 [BACE_19]
4,16,CCCCNC(=O)[C@H](C)C[C@H](O)[C@@H]1C[C@H](C)CCCCCN(CC)C(=O)c2cc(OCC)cc(c2)C(=O)N1 [BACE_1]
5,1.5,C[C@@H]1CCCCCCCNc2cc(cc(C(=O)N(C)C)c2)C(=O)N[C@H]([C@H](O)CNC2(c3cccc(C(C)(C)C)c3)CC2)C1 [BACE_68]
6,10000,CC(C)c1cccc(CNC[C@@H](O)[C@@H]2C[C@H](C)CCCCCCCCc3cc(ccn3)C(=O)N2)c1 [BACE_53]
7,1000,CC(C)c1cccc(CNC[C@@H](O)[C@@H]2C[C@H](C)CCCCCOCC(=O)N(C)[C@@H](C)C(=O)N2)c1 [BACE_34]
8,3.5,CCN1CCCCC[C@@H](C)C[C@@H]([C@H](O)CNCc2cccc(C(C)C)c2)NC(=O)c2cc(cc(-c3ncco3)c2)C1=O [BACE_40]
9,29,Cc1cc2cc(n1)NCCCCCCC[C@@H](C)C[C@@H]([C@H](O)CNCc1cccc(C(C)C)c1)NC2=O [BACE_41]
10,23,C[C@@H]1CCCCCCCNc2cccc(c2)C(=O)N[C@H]([C@H](O)CNC(C)(C)c2cc(CC(C)(C)C)on2)C1 [BACE_57]

# The next lines start with the compound.
row,SMILES,IC50 [nM]
1,CC(C)(NC[C@@H](O)[C@@H]1Cc2cccc(c2)CCCCNc2cc(c[n+](Cc3ccccc3)c2)C(=O)N1)c1cccc(Br)c1 [BACE_121],3600
2,C[C@H]1C(=O)N[C@H]([C@H](O)CNCc2cncc(C3CC3)c2)Cc2cccc(c2)CCCCCCC(=O)N1C [BACE_87],1100
3,COCc1cc2cc(c1)C(=O)N[C@H]([C@H](O)CNC1(c3cccc(C(C)C)c3)CC1)C/C(C)=C/COCCCCN2 [BACE_77],79
4,CN(C)C(=O)c1cc2cc(c1)C(=O)N[C@H]([C@H](O)CNC1(c3cccc(C(C)(C)C)c3)CC1)Cc1ccc(F)c(c1)OC/C=C\CN2 [BACE_131],41
5,C[C@@H]1CCCCCCCOc2cc(cc(-c3ncco3)c2)C(=O)N[C@H]([C@H](O)CNC2(c3cc(C(C)(C)C)ccn3)CC2)C1 [BACE_81],8.5
6,C[C@@H]1CCCCCCCCC(=O)N(C)[C@@H](C)C(=O)N[C@H]([C@H](O)CN[C@@H](C)c2cccc(Br)c2)C1 [BACE_22],55
7,CC(C)c1cccc(CNC[C@@H](O)[C@@H]2C[C@H](C)C/C=C\CCCCNc3cc(cc(Cl)n3)C(=O)N2)c1 [BACE_46],9.5
8,Cc1cc2cc(n1)OCCCCOc1cccc(c1)C[C@@H]([C@H](O)CN[C@H]1CC(C)(C)Oc3ccc(C(C)C)cc31)NC2=O [BACE_111],3
9,COCc1cc2cc(c1)C(=O)N[C@H]([C@H](O)CN[C@H]1CC(C)(C)Oc3ccc(C(C)C)cc31)Cc1cccc(c1)OCCCCN2 [BACE_128],2.5
10,C[C@@H]1CCCCCCCCC(=O)N(C)[C@@H](C)C(=O)N[C@H]([C@H](O)CNC2(c3cc(C(C)(C)C)ccn3)CC2)C1 [BACE_23],2
11,CC(=O)COc1cc2cc(c1)C(=O)N[C@H]([C@H](O)CNCc1cccc(C(C)C)c1)Cc1cccc(c1)OCCCCO2 [BACE_16],34
12,C[C@@H]1CCCCCCCOc2cc(ccn2)C(=O)N[C@H]([C@H](O)CNC(C)(C)c2cc(CC(C)(C)C)on2)C1 [BACE_84],31
13,C[C@@H]1CCCCCCCCC(=O)N(C)[C@@H](C)C(=O)N[C@H]([C@H](O)CNC(C)(C)c2cc(CC(C)(C)C)on2)C1 [BACE_27],5.8
14,CC(C)Cc1cncc(CNC[C@@H](O)[C@@H]2C[C@H](C)CC/C=C/CCCCC(=O)N(C)[C@@H](C)C(=O)N2)c1 [BACE_25],130
15,COCc1cc2cc(c1)C(=O)N[C@H]([C@H](O)CNC(C)(C)c1cc(C(C)(C)C)ccn1)Cc1cccc(c1)OCCCCN2 [BACE_124],25
